Measured values: patent US20230312639A1, “GPER PROTEOLYTIC TARGETING CHIMERAS” (University of Iowa Research Foundation, priority 2020, published 2023)
Residues, ends and D or L forms follow the SMILES beside them. *: point of attachment. Cbz = O=C(OCc1ccccc1)*

Key:
[1] = target: T1, recombinant HA-tagged GPER (Homo sapiens, UniProt Q99527); assay: HA immunoblot of lysates of HEK293 cells stably expressing HA-tagged GPER; format: cell-based; settings: various concentrations, 16 hr
T1 construct: expressed in transfected cells
Experimental: FIG. 38. […] HEK293 cells stably expressing recombinant HA-tagged GPER were treated with various concentrations of CIMBA-PROTAC-001 or partial PROTAC for 16 hr and then lysed in detergent. Equivalent amounts of protein lysate were resolved in SDS-polyacrylamide gels and then electrotransferred onto PVDF […] membranes. Membranes were probed with rabbit HA antibodies, top. HA- antibodies were stripped from the membrane at low pH and the membrane was then probed with […] transferrin receptor (TFNR) antibodies as a specificity and loading control.

[2] = test system: ERs (ERa and ERb); assay: Fluorescence polarization competitive binding with E2-FITC in cytosolic fractions from MCF-7 cells; set-up: species or system human
Experimental: ER binding was measured using cytosolic fractions prepared from MCF-7 cells by fluorescence polarization. MCF-7 (10^6 cells) were detached in EDTA, cell homogenates were prepared using a Dounce homogenizer and subcellular fractions were isolated by differential centrifugation as previously described (Filardo et al, 2002). The protein concentration of each fraction was determined by bichinchoninic acid (BCA) assay (Pierce ™ BCA protein assay kit, Thermo Fisher). For saturation binding assay of the probe, different concentrations of cytosolic fraction were diluted in assay buffer (10 mM Tris-HCl, pH 7.4; 50 mM KCl, 10% glycerol, 0.1 mM dithiothreitol (DTT), 1 ug/mL BGG, 10 nM protease inhibitor cocktail (Roche) to a final volume of 200 uL containing 10 nM Ez-FITC. The mixture was incubated at ambient temperature for 1 hour and interaction of the probe with cytosolic protein was determined by fluorescence polarization (FP). For competitive binding assay, an aliquot of cytosolic fraction and E2-FITC (10 nM final concentration) was mixed and incubated at 4° C. for 1 hour. Then different concentrations of drugs and controls were added to the mixture. The mixture was incubated for an additional hour and then subjected to FP. All samples were measured in triplicate. Negative controls (only cytosolic fraction or only E2-FITC) and positive control (E2-FITC and cytosolic fraction at 100% binding without treatment) were included. Relative binding affinities were expressed as the percentage of FP recorded from treated wells compared to the positive control. FP values in millipolarization units (mP) were measured at ex/em wavelength of 485 nm/530 nm respectively using the Spectra Max plus 384 Microplate Spectrophotometer (Molecular Devices, Sunnyvale, CA) in 96-well, black, flat-bottom microplates (Greiner Bio-One North America, Inc., Monroe, NC). Kd values of the probe were determined by nonlinear regression fitting of the saturation curves, while IC50 values of treatment were determined by nonlinear regression fitting of the competition curves.
In contrast to GPER, ERa and ERb are intracellular receptors that are concentrated in the cytoplasm and in the nucleus. […] A saturation analysis was performed using 10 nM E2-FITC and increasing concentrations of cytosolic protein (FIG. 25D).

[3] = target: T2, GPER (Homo sapiens, UniProt Q99527); settings: Filardo et al., 2007; cited from earlier work
[4] = target: T2, GPER; settings: Filardo et al., 2007; cited from earlier work; remark: listed apart in the source
[5] = target: HiBiT-GPER (Homo sapiens, UniProt Q99527); assay: Nano-BiT binary luminescence complementation, transfected HEK-293 cells, total receptor; format: cell-based; settings: for effect on UI-EP001 / UI-EP002 degradation of HiBiT-GPER: 100 µM UI-EP001 or UI-EP002, 1 hour, MG132 10 µM, chloroquine 100 µM, E2 or aldosterone 100 nM-100 µM
Experimental: FIG. 26. […] HEK-293 cells (ERα^-, GPER^-) were transiently transfected with 50 ng HiBiT-GPER or HiBiT-ER plus pcDNA3.1(+) zeo carrier plasmid. […] (C) Histogram depicting total HiBiT-GPER and HiBiT-ER following a 1-hour treatment at […] drug or control. […] Results shown represent the mean ± S.E. of three independent experiments.
(§1) FIG. 28. […] Total receptor was then measured by binary luminescence complementation in detergent-permeabilized cells. […] Total receptor was then quantified by binary luminescence complementation. Representative luminescence data and mean values and SDs derived from three independent experiments are shown.
(§2) Transient transfections and binary Nano-Bit ™ luminescence assays. Total HiBiT-tagged GPER or ER estrogen receptors were detected in detergent-permeabilized cells by binary luminescence complementation with recombinant LgBit and substrate using the Nano-Glo HiBiT Extracellular Detection system kit (Promega Corporation, Madison, Wl). In brief, HEK293 cells (0.75 × 10^6) were seeded in 35 mm tissue culture dishes and 24 hours later were transiently transfected with 50 ng of HiBiT-GPER or HiBiT-ERa and 950 ng of pcDNA3.1(+) zeo carrier plasmid using Lipofectamine 2000 (Invitrogen, Carlsbad, CA). The next day transfected cells were harvested by trypsinization and seeded at a density of 10^4 cells/well in 96-well poly-L-lysine-coated Greiner white-bottomed microplates. On the following day, cell culture media was aspirated and replaced with 100 µL of serum-free PRF-DF12 containing E2-PROTAC, partial-PROTAC, or vehicle at various concentrations and for indicated time intervals at 37° C. […] Following treatment, total HiBiT-tagged receptor was measured in cells which were permeabilized in 0.05% Triton X-100 using HiBiT complementation reagent consisting of LgBiT protein and Nano-Gio® HiBiT substrate. Luminescence was measured using the Infinite 200 PRO multimode microplate reader from Tecan (Raleigh, NC) and reported as Relative Luminescent Units (RLU). All samples were measured in triplicate and expressed as the mean value plus or minus standard deviation.

[6] = target: T3, HiBiT-ERα (Homo sapiens, UniProt P03372); assay: as above; format: cell-based; settings: for effect on UI-EP001 / UI-EP002 degradation of HiBiT-ERα: 100 µM UI-EP001 or UI-EP002, 1 hour, MG132 10 µM, chloroquine 100 µM, E2 or aldosterone 100 nM-100 µM
T3 sequence (P03372 1-595): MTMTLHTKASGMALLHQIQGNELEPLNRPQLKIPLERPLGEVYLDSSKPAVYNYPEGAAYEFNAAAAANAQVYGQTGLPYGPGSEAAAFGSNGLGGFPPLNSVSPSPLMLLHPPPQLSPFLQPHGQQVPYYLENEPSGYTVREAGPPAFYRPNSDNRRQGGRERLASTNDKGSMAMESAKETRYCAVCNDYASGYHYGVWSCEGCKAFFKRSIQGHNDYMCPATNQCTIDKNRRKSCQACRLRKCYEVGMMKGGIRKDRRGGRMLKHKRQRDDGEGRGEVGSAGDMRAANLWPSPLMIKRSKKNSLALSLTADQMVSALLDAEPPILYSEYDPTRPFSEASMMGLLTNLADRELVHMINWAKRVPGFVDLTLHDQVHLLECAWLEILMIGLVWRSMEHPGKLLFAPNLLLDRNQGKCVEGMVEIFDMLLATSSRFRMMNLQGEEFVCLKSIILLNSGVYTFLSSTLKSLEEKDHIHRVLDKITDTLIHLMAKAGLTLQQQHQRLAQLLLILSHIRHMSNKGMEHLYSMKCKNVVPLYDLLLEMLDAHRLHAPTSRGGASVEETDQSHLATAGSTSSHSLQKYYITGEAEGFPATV
Experimental: FIG. 26. […] HEK-293 cells (ERα^-, GPER^-) were transiently transfected with 50 ng HiBiT-GPER or HiBiT-ER plus pcDNA3.1(+) zeo carrier plasmid. […] Results shown represent the mean ± S.E. of three independent experiments.
as §1, §2

[7] = test system: HCC1806 cells; assay: Cell cycle analysis, propidium iodide, flow cytometry; format: cell-based, human; settings: HCC1806, 10 µM, 24 hours
Description: (§3) FIG. 30. E2-PROTACs promote estrogen receptor-dependent G2/M arrest. E2-PROTAC induced G2/M arrest in human breast cancer cell lines expressing membrane and/or intracellular estrogen receptors. […] Fixed cells were permeabilized and dyed with propidium iodide (PI). Cell cycle data were acquired on a flow cytometer and analyzed using Flow-Jo software. Data are expressed as mean ± SEM (n=3). The percentage of cells in each phase were plotted using Prism 8.0.
(§4) Cell cycle analysis. […] Following treatment, cells were harvested by trypsinization and washed twice in ice-cold PBS. Cells were then fixed in 70% ethanol at 4° C. for 30 minutes. Fixed cells were pelleted by centrifugation at 230 g for 5 minutes and the cell pellet was incubated in Krishan’s solution (3.8 mM sodium citrate (Fisher Scientific), 0.014 mM propidium iodide (AnaSpec, Fermont, Ca), 1% NP-40 (Sigma) and 2.0 mg/mL RNase A (Fisher Scientific)) for 30 minutes at 37° C. Cells were then centrifuged and washed in PBS prior to analysis using a FacScallibur flow cytometer. The data from flow cytometry were subjected to further analysis by CellQuest software version 3.3. DNA histograms generated indicate the fractions of the cell population in the sub-G1, G0-G1, S, or G2/M phase of the cell cycle.
(§5) To investigate the biological effect associated with decreased cell viability, cell cycle analysis was performed on the same four cell lines using propidium iodide staining and measured by flow cytometry 24 hours after treatment of cells with 10 µM E2-PROTAC or partial PROTAC (FIG. 30).

[8] = test system: MCF-7 cells; assay: as above; format: cell-based, human; settings: MCF-7, 10 µM, 24 hours
Description: as §3, §4, §5

[9] = test system: SKBR3 cells; assay: as above; format: cell-based, human; settings: SKBR3, 10 µM, 24 hours
Description: as §3, §4, §5

[10] = target: T4, ERα (Homo sapiens, UniProt P03372); assay: Immunostaining of endogenous receptors in MCF-7 cells; settings: MCF-7, 1 hour
T4 sequence (P03372 1-595): T3 sequence (P03372 1-595)

[11] = target: ERβ (Homo sapiens, UniProt Q92731); assay: as above; settings: MCF-7, 1 hour
[12] = target: T2, GPER; assay: as above; settings: MCF-7, 1 hour
[13] = target: T2, GPER; assay: Competitive binding assay in intact SKBR3 cells with E2-FITC as fluoro-tracer (flow cytometry); set-up: endogenous in cells; host or cells: SKBR3 human breast carcinoma cells (ATCC); settings: concentrations as high as 10 mM
[14] = increasing doses, 1 hour, partial PROTAC 100 µM

T2 sequence (Q99527 whole entry): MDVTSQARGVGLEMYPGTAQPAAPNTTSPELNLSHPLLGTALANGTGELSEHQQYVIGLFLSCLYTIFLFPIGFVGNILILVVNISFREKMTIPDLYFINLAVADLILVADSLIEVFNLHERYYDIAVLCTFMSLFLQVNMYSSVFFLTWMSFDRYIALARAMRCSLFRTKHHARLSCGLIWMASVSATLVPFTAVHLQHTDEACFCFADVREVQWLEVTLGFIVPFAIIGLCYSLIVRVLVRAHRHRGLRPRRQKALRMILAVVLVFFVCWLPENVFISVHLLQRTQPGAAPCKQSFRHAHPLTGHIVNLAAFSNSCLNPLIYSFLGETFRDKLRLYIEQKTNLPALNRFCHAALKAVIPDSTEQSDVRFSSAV
Chain of HiBiT-GPER (Q99527 whole entry): as above
Chain of ERβ (Q92731 whole entry): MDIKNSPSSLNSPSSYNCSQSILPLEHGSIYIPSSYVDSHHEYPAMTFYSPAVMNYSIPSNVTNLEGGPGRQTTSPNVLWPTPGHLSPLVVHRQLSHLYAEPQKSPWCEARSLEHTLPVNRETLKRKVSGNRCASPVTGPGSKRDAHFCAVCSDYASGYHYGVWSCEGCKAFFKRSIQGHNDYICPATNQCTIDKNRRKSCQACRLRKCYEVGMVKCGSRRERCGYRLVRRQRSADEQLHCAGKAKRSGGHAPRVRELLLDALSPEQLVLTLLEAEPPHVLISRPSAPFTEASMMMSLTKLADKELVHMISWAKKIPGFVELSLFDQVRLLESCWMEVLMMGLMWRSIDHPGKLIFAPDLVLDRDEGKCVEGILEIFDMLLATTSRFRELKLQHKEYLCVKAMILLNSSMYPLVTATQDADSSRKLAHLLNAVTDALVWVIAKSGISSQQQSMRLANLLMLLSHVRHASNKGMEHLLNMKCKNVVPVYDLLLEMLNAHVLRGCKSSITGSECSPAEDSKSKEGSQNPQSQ
T1 sequence (Q99527 whole entry): as the sequence (Q99527 whole entry) above

COc1ccc(CNc2ccc(C(C)C)cc2N2CCN(C(=O)COCCOCCOCCOCC(=O)NC(C(=O)N3CC(O)CC3C(=O)NCc3ccc(-c4scnc4C)cc3)C(C)(C)C)CC2)cc1 (stereo not drawn) [CIMBA-PROTAC-001]
degradation of recombinant GPER [1]: degrades recombinant GPER

C[C@]12CC[C@@H]3c4ccc(O)cc4C[C@@H](CCCCCCCCC[S+]([O-])CCCC(F)(F)C(F)(F)F)[C@H]3[C@@H]1CC[C@@H]2O (stereo partly drawn) [Fulvestrant]
relative binding activity [3]: 5% | concentration at which it functions as a GPER agonist [4]: 500 nM

CC(C)C[C@@H](C=O)NC(=O)[C@H](CC(C)C)NC(=O)[C@H](CC(C)C)NC(=O)OCc1ccccc1 [MG132] (Cbz-Leu-Leu-Leu-aldehyde)
effect on UI-EP001 / UI-EP002 degradation of HiBiT-GPER [5]: reversed | effect on UI-EP001 / UI-EP002 degradation of HiBiT-ERα [6]: reversed

Cc1ncsc1-c1ccc(CNC(=O)C2CC(O)CN2C(=O)C(NC(=O)COCCOCCOCCOCC(=O)O)C(C)(C)C)cc1 (stereo not drawn) [Partial PROTAC, reference compound]
receptor present after treatment ([5]; 100 µM, 8 hrs, recombinant receptor, GPER or ER not specified): 83% | change of HiBiT-GPER [5, 14]: did not show any significant decrease | change of HiBiT-ERα [6, 14]: did not show any significant decrease | cell cycle distribution [7]: much less significant shift | cell cycle distribution [8]: much less significant shift | cell cycle distribution [9]: much less significant shift | nuclear ERα expression [10]: did not impact | nuclear ERβ expression [11]: did not impact | intracellular GPER expression [12]: did not impact | competition for E2-FITC binding [13]: unable to compete for E2-FITC binding

C[C@]12CCC(=O)C=C1CC[C@@H]1[C@@H]2[C@@H](O)C[C@]2(C=O)[C@@H](C(=O)CO)CC[C@@H]12 [aldosterone]
effect on UI-EP001 / UI-EP002 degradation of HiBiT-GPER [5]: not aldosterone was capable of blocking | effect on UI-EP001 / UI-EP002 degradation of HiBiT-ERα [6]: not aldosterone was capable of blocking

CCN(CC)CCCC(C)Nc1ccnc2cc(Cl)ccc12 (stereo not drawn) [chloroquine, chloroquine diphosphate]
effect on UI-EP001 / UI-EP002 degradation of HiBiT-GPER [5]: had no such effect
